Experimental data: ChEMBL document CHEMBL4257494, “Exploring eukaryotic versus prokaryotic ribosomal RNA recognition with aminoglycoside derivatives” (Medchemcomm, 2018)
Calls of active or inactive are those of the source. The rule behind the calls is not given here.

What was measured:
[1] = Binding affinity to decoding-site of rRNA in Escherichia coli S30 extract assessed as inhibition of protein translation after 60 mins by coupled transcription/translation assay
[2] = Binding affinity to decoding-site of rRNA in rabbit reticulocytes assessed as inhibition of protein translation after 60 mins by coupled transcription/translation assay; type: cell-based, Oryctolagus cuniculus
[3] = Ratio of IC50 for inhibition of decoding-site of rRNA-mediated protein translation in rabbit reticulocytes to IC50 for inhibition of decoding-site of rRNA-mediated protein translation in Escherichia coli S30 extract; type: cell-based
[4] = test system: Escherichia coli; assay: Antibacterial activity against Escherichia coli R477/100 by double-microdilution method; type: functional
[5] = test system: Bacillus spizizenii; assay: Antibacterial activity against Bacillus subtilis ATCC 6633 by double-microdilution method; type: functional
[6] = test system: HEK293; assay: Binding affinity to decoding-site of rRNA in HEK293 cells assessed as read through activity at premature termination codon-containing CFTR G452X nonsense mutant gene (unknown origin) expressed in HEK293 cells after 16 hrs by dual luciferase reporter gene assay; type: cell-based; conditions: Homo sapiens
[7] = test system: HEK293; assay: Binding affinity to decoding-site of rRNA in HEK293 cells assessed as read through activity at premature termination codon-containing PCDH15 R3X nonsense mutant gene (unknown origin) expressed in HEK293 cells after 16 hrs by dual luciferase reporter gene assay; type: cell-based; conditions: Homo sapiens

Row | SMILES | IC50 [1] [µM] | IC50 [2] [µM] | Ratio IC50 [3] | MIC [4] [µg/mL] | MIC [5] [µg/mL] | Activity [6] | Activity [7]
1 | NC[C@H]1O[C@H](O[C@@H]2[C@@H](O)[C@H](N)C[C@H](N)[C@H]2O[C@H]2O[C@H](CO)[C@@H](O)[C@H](O)[C@H]2N)[C@H](O)[C@@H]1O.O=S(=O)(O)O | 2930 | 4320 | 1.5 | > 192 | > 192 | Active | Active
2 | NC(=O)[C@@H]1O[C@H](O[C@H]2[C@H](O)[C@@H](O)[C@H](N)C[C@@H]2N)[C@H](N)[C@@H](O)[C@@H]1O.O=S(=O)(O)O | 1300 | 700 | 0.5 | > 192 | > 192 | – | –
3 | C[C@H](N)[C@H]1O[C@H](O[C@@H]2[C@@H](O)[C@H](N)C[C@H](N)[C@H]2O[C@H]2O[C@H](CO)[C@@H](O)[C@H](O)[C@H]2N)[C@H](O)[C@@H]1O.O=S(=O)(O)O | 2410 | 3180 | 1.3 | > 192 | > 192 | Active | Active
4 | N[C@H]1[C@@H](O[C@H]2[C@H](O)[C@@H](O)[C@H](N)C[C@@H]2N)O[C@@H](C(=O)O)[C@@H](O)[C@@H]1O.O=S(=O)(O)O | 0.5 | 30 | 60 | – | 100 | – | –
5 | NC[C@H]1O[C@H](O[C@@H]2[C@@H](O)[C@H](N)C[C@H](N)[C@H]2O[C@H]2O[C@@H](C(N)=O)[C@@H](O)[C@H](O)[C@H]2N)[C@H](O)[C@@H]1O.O=S(=O)(O)O | 2 | 20 | 10 | – | 83 | – | –
6 | C[C@H](N)[C@H]1O[C@H](O[C@@H]2[C@@H](O)[C@H](N)C[C@H](N)[C@H]2O[C@H]2O[C@@H](C(N)=O)[C@@H](O)[C@H](O)[C@H]2N)[C@H](O)[C@@H]1O.O=S(=O)(O)O | 2310 | 520 | 0.2 | > 192 | > 192 | inactive | inactive
7 | C[C@H](N)[C@H]1O[C@H](O[C@@H]2[C@@H](O)[C@H](N)C[C@H](N)[C@H]2O[C@H]2O[C@@H](C(=O)O)[C@@H](O)[C@H](O)[C@H]2N)[C@H](O)[C@@H]1O.O=S(=O)(O)O | 1300 | 600 | 0.5 | > 192 | > 192 | inactive | inactive
8 | N[C@H]1[C@@H](O[C@H]2[C@H](O)[C@@H](O)[C@H](N)C[C@@H]2N)O[C@H](CO)[C@@H](O)[C@@H]1O.O=S(=O)(O)O [PAROMAMINE SULFATE] | 10 | 800 | 80 | > 192 | > 192 | – | –
9 | NC[C@H]1O[C@H](O[C@@H]2[C@@H](O)[C@H](N)C[C@H](N)[C@H]2O[C@H]2O[C@@H](C(=O)O)[C@@H](O)[C@H](O)[C@H]2N)[C@H](O)[C@@H]1O.O=S(=O)(O)O | 420 | 500 | 1.2 | > 192 | > 192 | – | –
